Data taken from PMC11493283, “N^4-Hydroxycytidine/molnupiravir inhibits RNA virus-induced encephalitis by producing less fit mutated viruses” (PLOS Pathogens, 2024).

Key:
[1] = system: LACV; assay: Antiviral efficacy against LACV in Vero cells, virus titer by plaque assay; type: cell-based; conditions: La Crosse virus, LACV 0.1 MOI, 24 hpi, read-out: EC50 (50% reduction in virus titer)
Experimental: (§1) Cells were seeded in 24-well plates (1 × 10^5 cells/well) and infected with LACV (0.1 MOI). At 1 hour post infection (hpi), medium was replaced with fresh medium containing 6 different concentrations for each of the drugs. RBV and FAV were tested at concentrations of 1, 3, 10, 30, 100, and 300 μM, while NHC was tested at concentrations of 0.1, 0.3, 1, 3, 10 and 30 μM. DMSO was used as vehicle control. At 24 hpi, the cell supernatant was harvested, centrifuged to eliminate cell debris and stored at −80 °C for sequencing (described below) and plaque assay following the method of Ojha et al. 2021 [32]. Quantified virus titers were plotted to represent antiviral efficacy. The EC50 (50% effective concentration representing a 50% reduction in virus titer) was determined by extrapolating a dose-response curve using GraphPad Prism 8 and 9.

[2] = system: LACV; assay: Antiviral efficacy against LACV in N2a cells, virus titer by plaque assay; type: cell-based; conditions: La Crosse virus, LACV 0.1 MOI, 24 hpi, read-out: EC50 (50% reduction in virus titer)
Experimental: as §1

[3] = system: LACV; assay: Antiviral efficacy against LACV in hNSCs, virus titer by plaque assay; type: cell-based; conditions: La Crosse virus, LACV 0.1 MOI, 24 hpi, read-out: EC50 (50% reduction in virus titer)
Experimental: as §1

[4] = system: LACV; assay: Serial passage of LACV in presence of NHC in Vero cells (resistance selection); type: cell-based, La Crosse virus; conditions: for EC50: La Crosse virus, Vero cells
Experimental: as §1
We used a digital scanner to scan the plaque assay plates. Digitized images were imported into FIJI/ImageJ v1.52n, and pixel calibration values were calculated based on the well diameter and corresponding digitized image. To quantify plaque size (surface area), wells with clearly isolated plaques were selected for segmentation and analysis. The image lookup table for each well was inverted followed by binarization prior to analysis, with a minimum area of 0.39 mm^2 to eliminate false positives due to slight variations in crystal violet staining. The measurements were imported into Microsoft Excel for data compilation, and graphed and analyzed using GraphPad Prism v9.3.1. Analysis of plaque size was done only when the plaque assays for different virus samples were done in parallel.
Vero cells were seeded at 5×10^5 cells/well in a 6-well plate for each passage. For the first passage, Vero cells were infected with LACV at MOIs of 10, 0.1, and 0.001 in 3 ml of medium, and treated with 0.1 μM of NHC or DMSO vehicle control. After 3 dpi, the virus inoculum was harvested from wells where more than 25% of cells were still attached to the well (using light microscopy). The harvested supernatants were centrifuged to clarify dead cells and then used to reinfect Vero cells at dilutions of 1:1,000, 1:100,000, and 1:10,000,000 and treated with 0.1 μM NHC for the first series of 5 passages where at each passage the culture with the highest dilution of virus that still gave rise to incomplete CPE (i.e. 25% of the cells still attached) was saved for the next passage. Second, third, and fourth series of 5 passages were treated with 0.2, 0.4 and 0.8 μM of NHC, respectively. After 20 passages in total, virus suspensions were collected, centrifuged, and frozen at −80°C to perform dose-dependent antiviral activity and plaque assays for virus titers (as described above).

[5] = system: Cache Valley virus (CVV); assay: Antiviral efficacy against Cache Valley virus in Vero cells, plaque assay; type: cell-based; conditions: 24 hpi, read-out: EC50 infectious virus production
Experimental: as §1
(§2) We also evaluated the ability of NHC to inhibit the replication of two other orthobunyaviruses, Cache Valley virus (CVV) and Jamestown Canyon (JCV). JCV belongs to the same serogroup as LACV but causes neurological disease in both children and adults. CVV is a member of the Bunyamwera serogroup and is the most common orthobunyavirus in the United States. Infections were done following the same protocol as for Fig 1. […] Thus, NHC inhibited virus replication for multiple orthobunyaviruses in different serogroups with similar potency.

[6] = system: Jamestown Canyon (JCV); assay: Antiviral efficacy against Jamestown Canyon virus in Vero cells, plaque assay; type: cell-based; conditions: 24 hpi, read-out: EC50 infectious virus production
Experimental: as §1, §2

[7] = in vitro; type: cell-based; conditions: MTT, 24h
Experimental: Method: Cells were seeded in 96-well plates (1-2x10^4 cells/well) after attachment different concentrations of each drug containing fresh media were added to each well, in triplicate. DMSO was used as a control. At 24h post-treatment, MTT assays were carried out according to the manufacturer’s instructions (Invitrogen, ThermoFisher Scientific). The absorbance was measured using the Synergy 4 cell plate reader (BioTek) at 540 nm. This assay was used to estimate the drug-induced cytotoxicity using the following formula: (sample absorbance/DMSO absorbance) × 100%. The CC50 (50% cytotoxic concentration) was determined by extrapolating the dose–response curve.

[8] = system: LACV; assay: MPID-NGS mutation rate of LACV in cell culture; type: cell-based, La Crosse virus; conditions: Vero cells; RBV, FAV: increase only at 100 μM; NHC also in hNSCs and N2a
Experimental: as §1
We used a Primer ID (PID) library preparation approach with Illumina MiSeq next-generation sequencing (NGS) to examine the mutagenic effects of these drugs on viral RNA allowing deep coverage of the viral population while maintaining a low method error rate (1 in 10,000 nucleotides). We designed cDNA primers targeting a 372 bp region of the RdRp gene within the L segment (referred as L7 in the study), and included a second amplicon covering a 455 bp portion of the M segment (referred as M4 in the study). Each cDNA primer included a block of random nucleotides (11 bases long) as the Primer ID/unique molecular identifier (UMI). […] After gel purification/extraction of the PCR product (Qiagen MinElute Gel Extraction kit), the extracted libraries were quantified using a Qubit fluorimeter and subjected to Agilent TapeStation analysis. For each sequencing run, 24 quantified libraries were pooled for MiSeq 300 base paired-end sequencing at the UNC High Throughput Sequencing Facility. […] Each type of substitution rate was calculated against the wildtype sequence at the sequenced regions. The sequencing date were submitted to the National Center for Biotechnology Information (NCBI) Sequence Read Archive (SRA), accession number is PRJNA1092655.

[9] = African green monkey, Vero cells

| SMILES | EC50 [1] | EC50 [2] | EC50 [3] | EC50 ([4]; after 20 passages with 0.1 to 0.8 μM NHC, read-out: EC50 against NHC-selected LACV) | EC50 ([4]; after 20 passages, read-out: EC50 against control (DMSO) passaged LACV) | supernatant virus titer at end of selection lower than control passaged virus ([4]; passage 20) | average plaque size of virus passaged with NHC vs DMSO control ([4]; passage 20 virus stocks) | EC50 [5] | EC50 [6] | CC50 [7, 9] | CC50 ([7]; human, hNSCs) | mutation rate of LACV grown in presence of drug [8] |
| --- | --- | --- | --- | --- | --- | --- | --- | --- | --- | --- | --- | --- |
| O=c1nc(NO)ccn1[C@@H]1O[C@H](CO)[C@@H](O)[C@H]1O [NHC, N^4-hydroxycytidine] | 0.57 µM | 1.5 µM | 1.2 µM | 0.49 µM | 0.5 µM | approximately 15 fold | significantly smaller | 0.25 µM | 0.3 µM | 203 µM | 132 µM | dose-dependent relationship |
| NC(=O)c1ncn([C@@H]2O[C@H](CO)[C@@H](O)[C@H]2O)n1 [RBV, ribavirin] | 42.7 µM | 3.8 µM | 27.7 µM |  |  |  |  |  |  | 1780 µM | 1260 µM | did not see a significant increase in mutation rates |
